# Assay results: patent publication US6914045B2, “Glycopeptide antibiotics” (Wyeth Holdings Corporation, priority 2001, dated 2005)
# What was measured:
# [1] = tested on: Staphylococcus aureus-SMITH (GC 4543); experiment: acute lethal infection in mice; assay type: in vivo; conditions: acute lethal infection, female CD-1 mice, intraperitoneal challenge, intravenous 30 min. after infection, 7 day survival
# Outline: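 Intraperitoneal challenge of female CD-1 mice with a bacterial dose lethal to untreated animals within 24-48 hr; single iv treatment 30 min later, 5 mice per dose level. Survival is scored at day 7 and pooled from three experiments to give the median effective dose.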
# [2] = tested on: Streptococcus sp.; experiment: in vitro antibacterial evaluation, MIC by broth dilution; assay type: cell-based; conditions: broth dilution, 18 hours at 35° C.
# Outline: (§1)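 Following National Committee for Clinical Laboratory Standards recommendations (M7-A2), susceptibility was measured by dilution in Muller-Hinton II […]. Bacteria were seeded at 5×10^5 CFU/mL against compound concentrations from 64 down to 0.06 μg/mL.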
# [3] = tested on: Enterococcus sp.; experiment: as above; assay type: cell-based; conditions: broth dilution, 18 hours at 35° C.
# Outline: as §1
# [4] = tested on: Staphylococcus sp.; experiment: as above; assay type: cell-based; conditions: broth dilution, 18 hours at 35° C.
# Outline: as §1
# [5] = tested on: Escherichia coli; experiment: as above; assay type: cell-based; conditions: 18 hours at 35° C.
# Outline: as §1
structure (smiles),measurement,setting,value
"CC(C)CC(=O)OC1C(O)C(CO)OC(OC2C(CO)OC(Oc3ccc(CC4NC(=O)C(C(C)c5ccc(Cl)cc5)NC(=O)CNC(=O)C(CO)NC(=O)C(C(O)C5CNC(=N)N5C5OC(CO)C(O)C(O)C5O)NC(=O)C(C(O)C5CNC(=N)N5)NC4=O)cc3)C(O)C2O)C1O (stereo not drawn) [Example 262b, Cyclo[glycyl-4-chloro-β-methylphenylalanyl-O-[4-O-[3-O-(3-methylbutanoyl)hexopyranosyl]-hexopyranosyl]tyrosyl-3-(2-iminoimidazolidin-4-yl)seryl-3-(3-hexopyranosyl-2-iminoimidazolidin-4-yl)serylseryl]]","median effective dose (ED50), Staphylococcus aureus-SMITH (GC 4543)",[1],1.22 mg/kg
same,MIC Streptococcus agalactiae (GC 4564),[2]; strain GC 4564,1 µg/mL
same,MIC Streptococcus pyogenes (ID-3187),[2]; strain ID-3187,1 µg/mL
same,MIC Enterococcus avium (GC 4558),[3]; Enterococcus avium (GC 4558),16 µg/mL
same,MIC Enterococcus faecalis (ATCC 29212),[3]; Enterococcus faecalis (ATCC 29212),32 µg/mL
same,MIC Enterococcus faecalis (GC 4553),[3]; Enterococcus faecalis (GC 4553),32 µg/mL
same,MIC Enterococcus faecalis (GC 4554),[3]; Enterococcus faecalis (GC 4554),32 µg/mL
same,MIC Enterococcus faecium (GC 2243),[3]; Enterococcus faecium (GC 2243),16 µg/mL
same,MIC Enterococcus faecium (GC 4556),[3]; Enterococcus faecium (GC 4556),16 µg/mL
same,MIC Enterococcus faecium (GC 4557),[3]; Enterococcus faecium (GC 4557),2 µg/mL
same,MIC Enterococcus faecalis (ATCC 29212),[3]; strain ATCC 29212,32 µg/mL
same,MIC Enterococcus faecalis (GC 2242),[3]; strain GC 2242,16 µg/mL
same,MIC Enterococcus faecium (GC 2243),[3]; strain GC 2243,16 µg/mL
same,MIC Enterococcus faecalis (GC 4552),[3]; strain GC 4552,32 µg/mL
same,MIC Enterococcus faecalis (GC 4553),[3]; strain GC 4553,32 µg/mL
same,MIC Enterococcus faecalis (GC 4554),[3]; strain GC 4554,32 µg/mL
same,MIC Enterococcus faecium (GC 4556),[3]; strain GC 4556,16 µg/mL
same,MIC Enterococcus faecium (GC 4557),[3]; strain GC 4557,2 µg/mL
same,MIC Enterococcus avium (GC 4558),[3]; strain GC 4558,16 µg/mL
same,MIC Coagulase Negative Staphylococcus (GC 4547),[4],2 µg/mL
same,MIC Coagulase Negative Staphylococcus (GC 4548),[4],1 µg/mL
same,MIC Coagulase Negative Staphylococcus (GC 4549),[4],1 µg/mL
same,MIC Coagulase Negative Staphylococcus (GC 4551),[4],2 µg/mL
same,MIC Staphylococcus aureus (ATCC 29213),[4],4 µg/mL
same,MIC Staphylococcus aureus (GC 1131),[4],4 µg/mL
same,MIC Staphylococcus aureus (GC 4541),[4],2 µg/mL
same,MIC Staphylococcus aureus (GC 4542),[4],2 µg/mL
same,MIC Staphylococcus aureus (GC 4544),[4],4 µg/mL
same,MIC Staphylococcus aureus (GC 4545),[4],2 µg/mL
same,MIC Staphylococcus aureus-SMITH (GC 4543),[4],1 µg/mL
same,MIC Staphylococcus haemolyticus (GC 4546),[4],2 µg/mL
same,MIC Staphylococcus aureus (ATCC 29213),[4]; strain ATCC 29213,4 µg/mL
same,MIC Staphylococcus aureus (GC 1131),[4]; strain GC 1131,4 µg/mL
same,MIC Staphylococcus aureus (GC 4541),[4]; strain GC 4541,2 µg/mL
same,MIC Staphylococcus aureus (GC 4542),[4]; strain GC 4542,2 µg/mL
same,MIC Staphylococcus aureus (GC 4544),[4]; strain GC 4544,4 µg/mL
same,MIC Staphylococcus aureus (GC 4545),[4]; strain GC 4545,2 µg/mL
same,MIC Staphylococcus haemolyticus (GC 4546),[4]; strain GC 4546,2 µg/mL
same,MIC Coagulase Negative Staphylococcus (GC 4547),[4]; strain GC 4547,2 µg/mL
same,MIC Coagulase Negative Staphylococcus (GC 4548),[4]; strain GC 4548,1 µg/mL
same,MIC Coagulase Negative Staphylococcus (GC 4549),[4]; strain GC 4549,1 µg/mL
same,MIC Coagulase Negative Staphylococcus (GC 4551),[4]; strain GC 4551,2 µg/mL
same,MIC Staphylococcus aureus-SMITH (GC 4543),[4]; strain SMITH GC 4543,1 µg/mL
same,MIC Escherichia coli (ATCC 25922),[5]; Escherichia coli (ATCC 25922),>64 µg/mL
same,MIC Escherichia coli (GC 4559),[5]; Escherichia coli (GC 4559),>64 µg/mL
same,MIC Escherichia coli (GC 4560),[5]; Escherichia coli (GC 4560),1 µg/mL
